The values below come from US5001133A, “Benzoic acid derivatives” (Sandoz Ltd., priority 1983, dated 1991).

The structures appear in SMILES notation.

The test system of experiment [1] is M receptors for serotonin. Conditions: isolated rabbit vagus nerve; cited from earlier work.
In experiment [2] the target is T1, serotonin M receptor (Oryctolagus cuniculus, UniProt A0A5F9C9J3).
T1 construct: isolated rabbit heart; from tissue; host or cells: isolated rabbit heart
T1 sequence (A0A5F9C9J3 1-494): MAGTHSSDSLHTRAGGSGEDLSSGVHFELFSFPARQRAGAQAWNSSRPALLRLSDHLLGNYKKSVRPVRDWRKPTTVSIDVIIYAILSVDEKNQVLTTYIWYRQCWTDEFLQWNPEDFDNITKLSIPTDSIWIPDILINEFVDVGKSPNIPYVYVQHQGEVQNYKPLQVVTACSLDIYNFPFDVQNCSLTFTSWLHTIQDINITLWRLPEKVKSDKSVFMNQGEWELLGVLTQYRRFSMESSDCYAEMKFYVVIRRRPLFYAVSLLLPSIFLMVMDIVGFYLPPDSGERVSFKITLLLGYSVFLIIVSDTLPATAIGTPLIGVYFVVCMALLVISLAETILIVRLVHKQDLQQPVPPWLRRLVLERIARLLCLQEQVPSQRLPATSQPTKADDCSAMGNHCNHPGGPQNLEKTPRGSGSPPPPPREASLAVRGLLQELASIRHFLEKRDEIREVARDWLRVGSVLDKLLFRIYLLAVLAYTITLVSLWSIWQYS
In words: inhibition of the effect of serotonin on the isolated rabbit heart. The settings on record: antagonism of serotonin, read-out: pA2 (converted). The source says: The serotonin M receptor antagonist activity is also indicated by inhibiting the effect of serotonin on the isolated rabbit heart according to the method of J.R.Fozard and A.T.Moborak Ali, European Journal of Pharmacology, (1978), 49, 109-112 at concentrations of 10^-11 to 10^-5 M of the compound of the invention. pD'2 or pA2 values may be calculated in the conventional manner.
The compounds of formula I may be administered in similar manner to known standards for use in these utilities. The suitable daily dosage for a particular compound will depend on a number of factors such as its relative potency of activity.

Another experiment deals with 5-HT M-receptors. The settings on record: slow i.v. injection of 10 mg; cited from earlier work.
The subject of experiment [3] is serotonin M receptor. The settings on record: blister base, forearm of human volunteers; cited from earlier work.

Consider `CCN(CC)C(=O)[C@@H]1C=C2c3cccc4[nH]c(Br)c(c34)C[C@H]2N(C)C1` [BOL--148], for which the “block of the action of serotonin on C fibre action potential amplitude” value (“block of the action of serotonin” for short) in experiment [1] is “not blocked”.

For the compound `COC1CC2CC(OC(=O)c3c[nH]c4ccccc34)CC1N2C` (stereo not drawn) [Example 2], the Kb at serotonin M receptor [2] is 0.01 nM. `CCN(CC)CCNC(=O)c1cc(Cl)c(N)cc1OC` [Metoclopramide]: the “effect on a migraine attack” value in the experiment on 5-HT M-receptors is on record as “immediate beneficial effect”. For `CCN(CC)C(=O)[C@@H]1C=C2c3cccc4[nH]cc(c34)C[C@H]2N(C)C1` [lysergic acid diethylamide], in the experiment with serotonin M receptor [3], the “inhibition of the algesic action of serotonin” value is “not inhibited”. As to `CC[C@@H](CO)NC(=O)[C@@H]1C=C2c3cccc4c3c(cn4C)C[C@H]2N(C)C1` [methysergide], the “block of the action of serotonin” value in experiment [1] is on record as “not blocked”.

As to `CSc1ccc2c(c1)C(N1CCN(C)CC1)Cc1ccccc1S2` (stereo not drawn) [metitepine], the “block of the action of serotonin” value in experiment [1] is given as “not blocked”.
